One block for each compound: values may come before it. No end group written: not given here.
Columns and labels:
[1] = biological target: T1, ETB receptor (Homo sapiens, UniProt P24530); assay: BRET-based G protein activation, wildtype ETB receptor + Gαq biosensor in HEK293T cells; assay type: cell-based
T1 construct: expressed in transfected cells; host or cells: HEK293T (transient)
T1 sequence (P24530 27-442): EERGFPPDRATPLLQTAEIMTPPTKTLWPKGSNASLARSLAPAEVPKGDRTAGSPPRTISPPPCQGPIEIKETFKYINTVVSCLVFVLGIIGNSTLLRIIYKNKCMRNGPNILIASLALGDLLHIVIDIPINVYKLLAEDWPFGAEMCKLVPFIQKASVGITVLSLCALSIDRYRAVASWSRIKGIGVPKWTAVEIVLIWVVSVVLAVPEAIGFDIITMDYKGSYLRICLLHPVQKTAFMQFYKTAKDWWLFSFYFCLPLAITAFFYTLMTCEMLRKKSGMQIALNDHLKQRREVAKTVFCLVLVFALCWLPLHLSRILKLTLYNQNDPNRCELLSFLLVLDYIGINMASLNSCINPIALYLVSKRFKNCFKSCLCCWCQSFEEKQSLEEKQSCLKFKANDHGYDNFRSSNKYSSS
Method: Two days before BRET measurements were performed, HEK293T cells were transiently transfected with 3 µg of cDNAs containing TP receptor, ETB receptor, DP2 receptor, or S1P3 receptor and 3 µg of cDNAs containing Gβ3-T2A-cpVenus-Gγ9-IRES-Gαq-NLuc or Gβ3-T2A-cpVenus-Gγ9-IRES-Gαo1-NLuc using linear 25 kDa PEI reagent (polyethylenimine, PolyScience Inc., Hirschberg an der Bergstraße, Germany). The ratio between DNA and PEI was 1:3, and 50 µl serum-free DMEM was added per 1 µg DNA. The same amount of serum-free DMEM was also added separately to the PEI solution. DNA-DMEM and PEI-DMEM mixtures were incubated for 5 minutes, followed by incubation of the final mixture for another 10 minutes. […]
Two days before the actual measurement, HEK293T cells were transiently transfected and seeded on microplates. […] The measurements were performed using a Spark 20M plate reader (Tecan) at 37°C. Initially, the cells were measured for the baseline emission ratio. After the baseline measurement, 20 µl of external or internal buffer containing differing concentrations of either U-46619, 4-Ala ET-1, PGD,2 or S1P or external or internal buffer alone were added to the cells and measured. […] The cells were measured from the top and the donor luminescence (NLuc) was recorded at 415 to 470 nm and the acceptor luminescence (cpVenus) at 520 to 590 nm. Data were recorded using SparkControl^TM software. […]

[2] = biological target: EP4 receptor conformation sensor (Homo sapiens, UniProt P35408); assay: FRET-based EP4 receptor conformation sensor stably expressed in HEK293 cells (intact, saponin-permeabilized, membrane fragments); assay type: cell-based; conditions: for Schild plot slope value of fitted linear regression / pKB (Schild plot, abscissa intercept): versus PGE2; for response of about 10 times EC50 normalized to saturating PGE2 concentration: 830 nM 11-deoxy PGE2, pipetting protocol
EP4 receptor conformation sensor, sequence (P35408 1-332 limits assumed): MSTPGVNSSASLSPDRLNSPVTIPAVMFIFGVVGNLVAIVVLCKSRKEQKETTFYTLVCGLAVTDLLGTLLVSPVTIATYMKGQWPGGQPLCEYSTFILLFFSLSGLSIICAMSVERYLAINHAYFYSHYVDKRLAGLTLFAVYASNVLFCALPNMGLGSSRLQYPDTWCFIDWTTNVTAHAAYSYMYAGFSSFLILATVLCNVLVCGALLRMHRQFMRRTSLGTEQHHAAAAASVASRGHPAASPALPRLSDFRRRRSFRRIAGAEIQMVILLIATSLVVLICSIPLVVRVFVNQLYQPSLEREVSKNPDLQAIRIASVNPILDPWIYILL
Method: (§1) The cells were washed once with external buffer and subsequently incubated 2 minutes for single-cell FRET measurements or 10 minutes for BRET measurements in 0.05% saponin (AppliChem, Darmstadt, Germany) dissolved in internal buffer. Afterward, the cells were washed five times for single-cell FRET measurements or three times for BRET measurements with internal buffer.
HEK293 cells stably expressing the EP4 receptor, IP receptor, or DP2 receptor conformation sensor were seeded on 15 cm Ø dishes and grown until optical confluence. The cells were washed once with Dulbecco’s PBS (Capricorn Scientific GmbH), without Ca & Mg and Phenol Red (phosphate-buffered saline, PBS). After adding 5 ml PBS to the cells, the dish was treated with liquid nitrogen until the solution was visibly frozen. These dishes were stored at −80°C until the measurements were carried out. On the day of the measurement, the dishes were removed from the freezer and stored at room temperature until the buffer solution had thawed. The material was collected with a cell scraper and centrifuged (5000 rpm/5 min). The supernatant was discarded, the pellet containing the membrane fragments was resuspended with external buffer containing 0.1% BSA and seeded on microplates. […]

[3] = biological target: T2, FFA3 receptor conformation sensor (Homo sapiens, UniProt O14843); assay: FRET-based FFA3 receptor conformation sensor, single-cell measurements in HEK293 cells
T2 construct: mT2 insertion and truncation after G314; expressed in transfected cells
T2 sequence (O14843 1-314 limits assumed): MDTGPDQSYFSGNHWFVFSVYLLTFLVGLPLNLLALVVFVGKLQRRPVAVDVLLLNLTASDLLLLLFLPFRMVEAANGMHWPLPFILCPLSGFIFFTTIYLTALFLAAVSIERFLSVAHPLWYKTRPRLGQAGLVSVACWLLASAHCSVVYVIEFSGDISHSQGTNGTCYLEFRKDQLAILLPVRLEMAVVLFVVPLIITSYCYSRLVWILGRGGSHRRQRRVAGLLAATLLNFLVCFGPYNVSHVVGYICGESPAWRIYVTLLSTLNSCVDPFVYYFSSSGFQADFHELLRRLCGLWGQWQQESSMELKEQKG
Method: as §1
(§2) The coverslips loaded with stably transfected HEK293 cells containing either the FFA3 receptor, α2A-AR CAM, or ETB receptor conformation sensors were clamped in an Attofluor^TM cell chamber and were washed once with external buffer. Afterward, they were side by side either permeabilized or directly measured at room temperature by the use of an inverted microscope (Elipse Ti2, Nikon, Düsseldorf, Germany), equipped with a 100× oil immersion objective (Plan Apo λ 100 x/1.45 oil ∞/0.17 WD 0.13, Nikon, Düsseldorf, Germany) and dual excitation and dual emission imaging capabilities. […] The fluorescence emission of mT2 and the respective YFP variant was simultaneously collected by a second beamsplitter (488, Chroma, Bellows Falls, Vermont, U.S.A.) and two emission filters (mT2: 474/27, Chroma; YFP: 544/23, Chroma). […] For all single-cell FRET experiments, cells were prospectively selected based on a continuous plasma-membrane fluorescence rim and appropriate fluorescence distribution to ensure a PM-dominant receptor signal. […]

[4] = biological target: T3, α2A-AR conformation sensor CAM (Mus musculus, UniProt Q01338); assay: FRET-based α2A-AR CAM conformation sensor, single-cell measurements in HEK293 cells; parameters: species or system murine
T3 sequence (Q01338 1-465): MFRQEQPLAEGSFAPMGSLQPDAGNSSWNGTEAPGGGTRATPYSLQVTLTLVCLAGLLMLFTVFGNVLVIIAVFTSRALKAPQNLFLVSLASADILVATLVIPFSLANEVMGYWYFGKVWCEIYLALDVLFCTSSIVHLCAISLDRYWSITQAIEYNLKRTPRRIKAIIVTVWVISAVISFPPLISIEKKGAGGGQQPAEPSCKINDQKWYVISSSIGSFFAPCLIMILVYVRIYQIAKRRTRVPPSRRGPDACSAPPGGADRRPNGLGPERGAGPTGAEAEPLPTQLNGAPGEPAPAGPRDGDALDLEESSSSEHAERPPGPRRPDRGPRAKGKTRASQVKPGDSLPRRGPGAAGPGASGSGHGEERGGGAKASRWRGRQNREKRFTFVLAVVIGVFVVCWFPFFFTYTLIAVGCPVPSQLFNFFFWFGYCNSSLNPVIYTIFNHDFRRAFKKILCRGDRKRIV
Method: as §1, §2

Compound: ASASSLMDKEAVYFAHLDIIW-OH [4-Ala ET-1]
- EC50 ([1]; intact HEK293T cells): 8.91 nM
- EC50 ([1]; saponin-permeabilized cells with 1 µM GTP): 0.617 nM

Compound: CCC(=O)O [propionate, propionic acid]
- pEC50 ([3]; intact cells): 3.92
- pEC50 ([3]; saponin-permeabilized cells): 3.84

Compound: CCCCC[C@H](O)/C=C/[C@H]1CCC(=O)[C@@H]1C/C=C\CCCC(=O)O [11-deoxy PGE2]
- pEC50 ([2]; intact HEK293 cells, multiple-cell FRET on plate reader): 7.08
- response of about 10 times EC50 normalized to saturating PGE2 concentration ([2]; intact cells): 91% ± 3
- response of about 10 times EC50 normalized to saturating PGE2 concentration ([2]; saponin-permeabilized cells): 50% ± 3

Second part, the compound after the results:

- Schild plot slope value of fitted linear regression ([2]; intact cells): 1.16
- pKB (Schild plot, abscissa intercept) ([2]; intact cells): 7.7
- Schild plot slope value of fitted linear regression ([2]; membrane fragments): 0.69
- pKB (Schild plot, abscissa intercept) ([2]; membrane fragments): 6.6
Compound: CCCCc1nn(-c2ccccc2C(F)(F)F)c(=O)n1Cc1ccc(-c2ccccc2S(=O)(=O)NC(=O)c2sccc2C)cc1 [L-161,982]

- pEC50 ([4]; intact cells): 6.10
- pEC50 ([4]; saponin-permeabilized cells): 5.63
Compound: NC[C@H](O)c1ccc(O)c(O)c1 [norepinephrine]
